Measurements reported in patent publication US5597915A, “Benzodiazepine derivatives, compositions containing them and their use in therapy” (Merck Sharp & Dohme Ltd., priority 1992, dated 1997).

Experiments:
CCK Receptor (Brain) = molecular target: T1, CCK Receptor (Brain) (Cavia porcellus, UniProt H0VZC5); assay: CCK Receptor Binding (Brain): inhibition of 125I-CCK-8 binding to guinea pig cortex membranes; design: species or system guinea pig (male Hartley); conditions: 50 pM 125I-CCK-8, 25° C., 2 hours, pH 6.5
T1 construct: the cortex was removed and homogenized in 25 mL ice-cold 0.32 M sucrose; from tissue; host or cells: guinea pig cerebral cortex P2 membranes
T1 sequence (H0VZC5 1-426): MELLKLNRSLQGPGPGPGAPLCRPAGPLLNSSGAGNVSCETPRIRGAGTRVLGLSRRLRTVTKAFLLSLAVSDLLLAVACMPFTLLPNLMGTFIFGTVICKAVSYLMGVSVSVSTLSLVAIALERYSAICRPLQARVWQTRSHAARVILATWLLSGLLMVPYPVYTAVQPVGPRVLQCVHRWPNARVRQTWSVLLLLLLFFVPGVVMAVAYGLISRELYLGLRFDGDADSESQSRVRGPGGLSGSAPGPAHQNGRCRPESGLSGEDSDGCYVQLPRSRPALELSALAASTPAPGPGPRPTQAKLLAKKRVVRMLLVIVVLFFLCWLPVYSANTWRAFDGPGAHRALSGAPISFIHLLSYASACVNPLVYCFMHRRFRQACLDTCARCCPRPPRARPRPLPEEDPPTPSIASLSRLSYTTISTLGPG
Protocol: 2. CCK Receptor Binding (Brain)
CCK-8 sulphated was radiolabelled and the binding was performed according to the description for the pancreas method with minor modifications.
Male Hartley guinea pigs (300-500 g) were sacrificed by decapitation and the cortex was removed and homogenized in 25 mL ice-cold 0.32 M sucrose. The homogenates were centrifuged at 1000 g for 10 minutes and the resulting supernatant was recentrifuged at 20,000 g for 20 minutes. The P2 pellet was resuspended in binding assay buffer (20 mM HEPES, 5 mM MgCl2, 0.25 mg/ml bacitracin, 1 mM EGTA pH 6.5 at 25° C.), using a Teflon (trademark) homogenizer (5 strokes at 500 rpm) to give a final concentration of 10 mg original wet weight /1.2 ml buffer. For the binding assay, 50 μl of buffer (for total binding) or unlabelled CCK-8 sulphated to give a final concentration of 1 μM (for nonspecific binding) or the compounds of Formula I (for determination of inhibition of ^125 I-CCK-8 binding) and 50 μl of 500 pM ^125 I-CCK-8 (i.e. final concentration of 50 pM) were added to 400 μl of the membrane suspensions in microfuge tubes. All assays were run in duplicate. […] The radioactivity on the filters was counted with a LKB gamma counter. […]

CCK Receptor (Pancreas) = molecular target: T2, CCK Receptor (Pancreas) (Rattus norvegicus, UniProt P30551); assay: CCK Receptor Binding (Pancreas): inhibition of 125I-CCK-8 binding to rat pancreas membranes; design: species or system rat (male Sprague-Dawley); conditions: 50 pM 125I-CCK-8, 25° C., 2 hours, pH 6.5
T2 construct: The whole pancreas was dissected free of fat tissue and was homogenized; from tissue; host or cells: rat whole pancreas homogenate/membranes
T2 sequence (P30551 1-444): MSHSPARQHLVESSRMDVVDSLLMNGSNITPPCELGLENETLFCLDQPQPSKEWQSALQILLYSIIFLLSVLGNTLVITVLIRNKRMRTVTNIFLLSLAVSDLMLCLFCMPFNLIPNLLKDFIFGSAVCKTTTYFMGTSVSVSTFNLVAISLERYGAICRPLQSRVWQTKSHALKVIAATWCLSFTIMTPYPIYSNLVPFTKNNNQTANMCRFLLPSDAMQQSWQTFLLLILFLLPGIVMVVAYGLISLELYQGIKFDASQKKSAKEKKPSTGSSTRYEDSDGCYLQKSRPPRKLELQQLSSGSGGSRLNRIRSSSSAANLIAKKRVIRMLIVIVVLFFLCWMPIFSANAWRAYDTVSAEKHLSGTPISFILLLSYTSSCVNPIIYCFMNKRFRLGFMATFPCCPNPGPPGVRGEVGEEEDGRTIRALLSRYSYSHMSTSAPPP
Protocol: 1. CCK Receptor Binding (Pancreas)
CCK-8 sulphated was radiolabelled with ^125 I-Bolton Hunter reagent (2000 Ci/mmole). Receptor binding was performed according to Chang and Lotti (Proc. Natl. Acad. Sci. 83, 4923-4926, 1986) with minor modifications.
Male Sprague-Dawley rats (150-200 g) were sacrificed by decapitation. The whole pancreas was dissected free of fat tissue and was homogenized in 25 volumes of ice-cold 10 mM N-2-hydroxyethyl-piperazine-N'-2-ethane sulphonic acid (HEPES) buffer with 0.1% soya bean trypsin inhibitor (pH 7.4 at 25° C.) with a Kinematica Polytron. The homogenates were centrifuged at 47,800 g for 10 min. Pellets were resuspended in 10 volumes of binding assay buffer (20mM (HEPES)), 1 mM ethylene glycol-bis-(β-aminoethylether-N,N'-tetraacetic acid) (EGTA), 5 mM MgCl2, 150 mM NaCl, bacitracin 0.25 mg/ml, soya bean trypsin inhibitor 0.1 mg/ml, and bovine serum albumin 2 mg/ml pH 6.5 at 25° C.) using a Teflon (trademark) homogenizer, 15 strokes at 500 rpm. The homogenate was further diluted in binding assay buffer to give a final concentration of 0.5 mg original wet weight/1 ml buffer. […] The radioactivity on the filters was counted with a LKB gamma counter. […]

IC50 (CCK Receptor (Brain)) [nM]	IC50 (CCK Receptor (Pancreas)) [nM]	SMILES
5.98	110	CN1C(=O)C(NC(=O)Nc2cccc(-c3noc(=O)[nH]3)c2)N=C(C2CCC2)c2ccccc21 (racemic) [Example 2, N-[3(R,S)-5-Cyclobutyl-2,3-dihydro-1-methyl-2-oxo-1H-1,4-benzodiazepin-3-yl]N'-[3-(5-oxo-4H-1,2,4-oxadiazolin-3-yl)phenyl]urea]
0.123	500	CN1C(=O)[C@H](NC(=O)Nc2cccc(-c3noc(=O)[nH]3)c2)N=C(C2CCCCC2)c2ccccc21 [Example 1, N-[3(R)-5-Cyclohexyl-2,3-dihydro-1-methyl-2-oxo-1H-1,4-benzodiazepin-3-yl]N'-[3-(5-oxo-4H-1,2,4-oxadiazolin,3-yl)phenyl]urea]
